In patent US8628771B2, “CA IX-specific inhibitors” (Institute of Virology Slovak Academy of Sciences, priority 2002, dated 2014):
Where two headings read alike, the source gives them in different places.

Assays:
bCA IV = target: T1, bCA IV (Bos taurus, UniProt Q95323); experiment: CA esterase activity assay, isozyme bCA IV; type: biochemical, bovine
T1 construct: CA IV was isolated from bovine lung microsomes as described by Maren et al; from tissue; host or cells: bovine lung microsomes
T1 sequence (Q95323 19-284): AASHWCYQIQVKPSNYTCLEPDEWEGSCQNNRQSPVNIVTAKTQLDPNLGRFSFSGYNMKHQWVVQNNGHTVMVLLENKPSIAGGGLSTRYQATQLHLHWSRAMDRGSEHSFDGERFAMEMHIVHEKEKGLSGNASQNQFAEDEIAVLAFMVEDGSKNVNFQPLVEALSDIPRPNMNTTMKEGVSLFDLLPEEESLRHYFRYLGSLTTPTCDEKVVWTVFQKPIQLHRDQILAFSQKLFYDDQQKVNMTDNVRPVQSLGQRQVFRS

hCA IX = hCA IX (Homo sapiens, UniProt Q16790); experiment: CA CO2 hydrase activity assay, tumor-associated isozyme hCA IX
Method: An SX.18MV-R Applied Photophysics stopped-flow instrument has been used for assaying the CA CO2 hydration activity assays [44]. […] Inhibitor and enzyme solutions were preincubated together for 10 min at room temperature prior to assay, in order to allow for the formation of the E-I complex.

hCA II = target: T2, hCA II (Homo sapiens, UniProt P00918); experiment: CA esterase activity assay, isozyme hCA II; type: biochemical
T2 construct: made in house; host or cells: Escherichia coli BL21 (DE3)
Method: (§1) Human CA I and CA II cDNAs were expressed in Escherichia coli strain BL21 (DE3) from the plasmids pACA/hCA I and pACA/hCA II described by Lindskog's group [54].
(§2) Non-enzymatic hydrolysis rates were always subtracted from the observed rates. […] Inhibitor and enzyme solutions were preincubated together for 10 min at room temperature prior to assay, in order to allow for the formation of the E-I complex. The inhibition constant KI was determined as described in references [44, 76].

hCA I = target: T3, hCA I (Homo sapiens, UniProt P00915); experiment: CA esterase activity assay, isozyme hCA I; type: biochemical
T3 construct: made in house; host or cells: Escherichia coli BL21 (DE3)
T3 sequence (P00915 whole entry): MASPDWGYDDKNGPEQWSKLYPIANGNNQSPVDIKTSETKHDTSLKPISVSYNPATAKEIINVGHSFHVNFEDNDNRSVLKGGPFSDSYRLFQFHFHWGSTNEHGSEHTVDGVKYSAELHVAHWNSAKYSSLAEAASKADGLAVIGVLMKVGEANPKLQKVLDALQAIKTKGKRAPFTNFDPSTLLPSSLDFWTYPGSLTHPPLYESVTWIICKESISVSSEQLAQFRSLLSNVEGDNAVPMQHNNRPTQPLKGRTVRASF
Method: as §1, §2

[1] = Table 3, from bovine lung microsomes, esterase assay method, read-out: KI bCA IV
[2] = Table 3, read-out: KI against CA IV
[3] = read-out: KI hCA IX, Table 3, catalytic domain of the human, cloned isozyme, CO2 hydrase assay method
[4] = Table 3, human (cloned) isozymes, esterase assay method, read-out: KI hCA II
[5] = Tables 1 and 3, read-out: KI against CA II
[6] = Table 3, human (cloned) isozymes, esterase assay method, read-out: KI hCA I
[7] = Table 3, read-out: KI against CA I
[8] = Table 2, from bovine lung microsomes, read-out: KI bCA IV
[9] = KI against CA IX, text discussion of Tables 1-3
[10] = read-out: KI hCA IX, Table 2, catalytic domain of the human, cloned isozyme
[11] = Table 2, human (cloned) isozymes, read-out: KI hCA II
[12] = Table 2, human (cloned) isozymes, read-out: KI hCA I

| SMILES | Ki (bCA IV; [1]) [µM] | Ki (bCA IV; [2]) [µM] | Ki (hCA IX; [3]) [µM] | Ki (hCA II; [4]) [µM] | Ki (hCA II; [5]) [µM] | Ki (hCA I; [6]) [µM] | Ki (hCA I; [7]) [µM] | Ki (bCA IV; [8]) [µM] | Ki (hCA IX; [9]) [µM] | Ki (hCA IX; [10]) [µM] | Ki (hCA II; [11]) [µM] | Ki (hCA I; [12]) [µM] | Ki (hCA IX) [µM] | Ki (hCA II; read-out: KI hCA II) [µM] | Ki (hCA II; read-out: KI against CA II) [µM] |
| --- | --- | --- | --- | --- | --- | --- | --- | --- | --- | --- | --- | --- | --- | --- | --- |
| CCc1cc(-c2ccccc2)cc(CC)[n+]1-c1ccc(S(N)(=O)=O)cc1 [Compound 29] |  |  |  |  |  |  |  | 0.182 | 0.006 to 0.054 | 0.043 | 0.06 | 6 |  |  |  |
| CCCCc1cc(-c2ccccc2)cc(-c2ccccc2)[n+]1CCc1ccc(S(N)(=O)=O)cc1 [Compound 66] |  |  |  |  |  |  |  | 2.01 |  | 0.12 | 0.544 | 290 |  |  |  |
| NS(=O)(=O)c1ccc(C[n+]2c(-c3ccccc3)cccc2-c2ccccc2)cc1 [Compound 53] |  |  |  |  |  |  |  | 1.95 |  | 0.106 | 0.493 | 280 | 0.064 to 0.135 |  |  |
| Cc1cc(C)[n+](Cc2ccc(S(N)(=O)=O)cc2)c(C)c1C [Compound 54] |  |  |  |  |  |  |  | 0.051 | 0.006 to 0.054 | 0.035 |  | 3 |  | 0.03 |  |
| Cc1cc(-c2ccccc2)cc(C)[n+]1CCc1ccc(S(N)(=O)=O)cc1 [Compound 58] |  |  |  |  |  |  |  | 0.02 | < 0.01 | 0.006 | 0.008 | 1 |  |  |  |
| CCc1cc(-c2ccccc2)cc(-c2ccccc2)[n+]1-c1ccc(S(N)(=O)=O)cc1 [Compound 33] |  |  |  |  |  |  |  | 1.3 |  | 0.45 | 0.4 | 43 |  |  |  |

Continued, values first:

| Ki (bCA IV; [1]) [µM] | Ki (bCA IV; [2]) [µM] | Ki (hCA IX; [3]) [µM] | Ki (hCA II; [4]) [µM] | Ki (hCA II; [5]) [µM] | Ki (hCA I; [6]) [µM] | Ki (hCA I; [7]) [µM] | Ki (bCA IV; [8]) [µM] | Ki (hCA IX; [9]) [µM] | Ki (hCA IX; [10]) [µM] | Ki (hCA II; [11]) [µM] | Ki (hCA I; [12]) [µM] | Ki (hCA IX) [µM] | Ki (hCA II; read-out: KI hCA II) [µM] | Ki (hCA II; read-out: KI against CA II) [µM] | SMILES |
| --- | --- | --- | --- | --- | --- | --- | --- | --- | --- | --- | --- | --- | --- | --- | --- |
| 0.0084 | 0.0052 to 0.0103 | 0.045 | 0.00495 | 0.00313 to 0.00596 | 0.008 | 0.007 to 0.012 |  |  |  |  |  |  |  |  | CCCCc1cc(-c2ccccc2)cc(-c2ccccc2)[n+]1-c1ccc(S(=O)(=O)Nc2nnc(S(N)(=O)=O)s2)cc1 [Compound 84, 1-N-[5-Sulfamoyl-1,3,4-thiadiazol-2-yl-(aminosulfonyl-4-phenyl)]-2-n-butyl-4,6-diphenylpyridinium perchlorate] |
| 0.003 |  | 0.024 | 0.00121 | 0.0002 to 0.00161 | 0.004 |  |  |  |  |  |  | 0.012 to 0.035 |  |  | Cc1cc(-c2ccccc2)cc(-c2ccccc2)[n+]1-c1ccc(S(=O)(=O)Nc2nnc(S(N)(=O)=O)s2)cc1 [Compound 80, 1-N-[5-Sulfamoyl-1,3,4-thiadiazol-2-yl-(aminosulfonyl-4-phenyl)]-2-methyl-4,6-diphenylpyridinium perchlorate] |
| 0.0047 |  | 0.016 | 0.00154 | 0.0002 to 0.00161 | 0.007 | 0.007 to 0.012 |  | 0.012 to 0.035 |  |  |  |  |  |  | Cc1cc(C(C)C)[n+](-c2ccc(S(=O)(=O)Nc3nnc(S(N)(=O)=O)s3)cc2)c(C(C)C)c1 [Compound 73, 1-N-[5-Sulfamoyl-1,3,4-thiadiazol-2-yl-(aminosulfonyl-4-phenyl)]-2,6-di-iso-propyl-4-methylpyridinium perchlorate] |
| 0.0056 | 0.0052 to 0.0103 | 0.012 | 0.00596 | 0.00313 to 0.00596 | 0.005 |  |  |  |  |  |  | 0.012 to 0.035 |  |  | NS(=O)(=O)c1nnc(NS(=O)(=O)c2ccc(-[n+]3c(-c4ccccc4)cc(-c4ccccc4)cc3-c3ccccc3)cc2)s1 [Compound 87, 1-N-[5-Sulfamoyl-1,3,4-thiadiazol-2-yl-(aminosulfonyl-4-phenyl)]-2,4,6-triphenyl-pyridinium perchlorate] |
| 0.0038 |  | 0.029 | 0.00114 |  | 0.005 |  |  | 0.012 to 0.035 |  |  |  |  |  | 0.0002 to 0.00161 | CCc1cc(-c2ccccc2)cc(-c2ccccc2)[n+]1-c1ccc(S(=O)(=O)Nc2nnc(S(N)(=O)=O)s2)cc1 [Compound 81, 1-N-[5-Sulfamoyl-1,3,4-thiadiazol-2-yl-(aminosulfonyl-4-phenyl)]-2-ethyl-4,6-diphenylpyridinium perchlorate] |
| 0.007 | 0.0052 to 0.0103 | 0.043 | 0.00411 | 0.00313 to 0.00596 | 0.012 | 0.007 to 0.012 |  |  |  |  |  | 0.04 to 0.043 |  |  | CC(C)(C)c1cc(-c2ccccc2)cc(-c2ccccc2)[n+]1-c1ccc(S(=O)(=O)Nc2nnc(S(N)(=O)=O)s2)cc1 [Compound 85, 1-N-[5-Sulfamoyl-1,3,4-thiadiazol-2-yl-(aminosulfonyl-4-phenyl)]-2-tert-butyl-4,6-diphenylpyridinium perchlorate] |
